Source: patent US20150292023A1, “Materials and Methods Related to NSAID Chemoprevention in Colorectal Cancer” (priority 2011, published 2015)
Where two headings read alike, the source gives them in different places.

How the values were obtained:
[1] = system: MMR-deficient human colon tumor cells; assay: MSI suppression in MMR-defective cells; format: cell-based; details: for MSI suppression (in words): long-term exposure of MMR-defective cells
From the text: Inhibition of cyclooxygenase-1 (COX1) or COX2 activity that is involved in the production of inflammatory prostaglandins was, in the past, generally considered a mechanism for cancer chemoprevention by NSAIDs.

[2] = system: microsatellite instability (MSI) in intestinal tissues of LS/HNPCC mice; assay: MSI analysis of tissues by small pool PCR (comparative MSI, Bethesda Criteria); format: in vivo, mouse; details: for conversion of MSI to MSS (in words): intestinal compartment of treated mice; for comparative MSI-H proportion: intestinal tumor vs matched adjacent normal tissue, untreated 33%
Description: A MSI analysis on tissues from the ASA and NO-ASA treatment groups by small pool PCR (1-10 genomic equivalents) was performed to determine the distribution of novel alleles between constitutional DNA (Ear, E) as well as normal (N) and tumor (T) intestinal tissues. When multiple samples of each tissue were analyzed, the resulting profiles comprised a representational distribution of the intrinsic allelic diversity. Ear tissues from these mice were consistently MSS, with the major allele always flanked by a relatively unvarying pattern of alleles that arise from PCR amplification-artifacts. Normal and intestinal tissues from ASA and NO-ASA treated mice show variation in major allele sizes and distributions.
A comparative assessment of MSI status was made between intestinal tumors and their matched adjacent normal tissues by determining the absolute changes in microsatellite alterations between them. Comparative MSI provides a quantitative measure of the relative differences in instability between adjacent developmentally related normal and tumor tissues. The Bethesda Criteria for diagnostic microsatellite instability was used: MSS, no changes in microsatellite marker status; high microsatellite instability (MSI-H; ≧2 of 5 markers different).

[3] = system: intestinal tumors of LS/HNPCC mice; assay: Tumor number and pathology following NSAID treatment; details: for numbers of tumors when sacrificed: untreated 1.90±1.02, statistically equivalent
LS/HNPCC patients = details: cited from earlier work; for decrease in the rate of tumor formation / tumor incidence: long-term aspirin exposure (benefit after 5 yrs) vs placebo-treated cohort
[4] = system: Msh2^flox/floxVpC^+/+ (LS/HNPCC) mice; assay: Kaplan-Meier survival of LS/HNPCC mice treated with NSAIDs in diet; format: in vivo, mouse
Description: (§1) Cohorts of equivalent gender Msh2^flox/floxVpC^+/+ mice were treated with NSAIDs including ASA that were mixed with powdered diet and administered ad libitum. VpC^+/+ (Msh2^++) mice were similarly examined to control for potentially confounding effects of continuous Cre expression in the intestine. Kaplan-Meier survival analyses were generated for each NSAID treatment (FIG. 2).
A mouse model where exon 12 of Msh2 is flanked by LoxP recombination sites (Msh2^flox/flox) was generated. […] When considering the utility of this mouse model it is important to note that while modern day LS/HNPCC largely occurs in the colon, it was originally described as a gastric cancer.
The endpoint for the chemopreventive analysis of NSAIDs on mouse tumorigenesis is survival. Assessment of tumor kinetics, treatment regimes and pathological changes during tumor development constitute a correlative quantitative database.

miR-9 = details: intestinal tissue
Description: (§2) Groups of 12 mice were continuously treated (6 VpC^+/+ wild type and 6 Msh2^flox/floxVpC^+/+ LS/HNPCC mice) with each of the eight NSAIDs and the intestines were harvested after two months exposure. A 0.5 cm section of intestine 2.5 cm proximal of the cecum was harvested from each individually treated mouse. High quality mRNA and miRNA was prepared for expression array analysis. To reduce the possibility of day-to-day variation the hybridization of all samples was performed simultaneously as well as sequential expression analysis. Transcriptome expression data from both the mRNA and miRNA chips was analyzed.
(§3) Identifying functional and regulatory connectivity among the differentially regulated miRs and mRNAs was analyzed to begin to determine biological pathways and networks responsible for NSAID-mediated tumor chemoprevention,. A combination of tools were used to deconvolute network interactions, including the ToppGene, ToppCluster, and ToppMir tools.

miR-135a = details: intestinal tissue
Description: as §2, §3

SMC1a mRNA = details: intestinal tissue
Description: as §2, §3

VpC^+/+ (wild type) mice = system: VpC^+/+ (wild type) mice
Description: as §1

Compound: CC(=O)Oc1ccccc1C(=O)O [ASA, Acetylsalicylic acid]
- MSI suppression (in words) [1]: suppressed MSI
- conversion of MSI to MSS (in words) [2]: at least partially converted MSI to MSS
- comparative MSI-H proportion [2]: 22%
- numbers of tumors when sacrificed [3]: 1.68±0.72
- Hazard Ratio (HR) (LS/HNPCC patients; 600 mg aspirin daily vs placebo, tumors by yearly colonoscopy, p=0.02): 0.61(0.1 9, 0.86)
- decrease in the rate of tumor formation / tumor incidence (LS/HNPCC patients): ≥ 2 fold
- decrease in the rate of tumor formation / tumor incidence (LS/HNPCC patients; listed as aspirin): at least 2 fold
- mean survival ([4]; 400 mg/kg ASA in diet, untreated median 333 days, p<0.001): 393 days
- increase in lifespan ([4]; 400 mg/kg ASA vs untreated): 18%
- effect on survival (in words) ([4]; LS/HNPCC mice vs untreated): suppressed tumorigenesis and increased survival

Compound: COc1ccc2cc([C@H](C)C(=O)O)ccc2c1 [Naproxen, naproxen]
- miR-9 expression (in words) (miR-9): down-regulated
- miR-135a expression (in words) (miR-135a): down-regulated
- SMC1a mRNA expression (in words) (SMC1a mRNA): enhanced
- numbers of tumors when sacrificed [3]: 1.58±0.67
- mean survival ([4]; 166 mg/kg naproxen in diet): 545 days
- mean survival ([4]; 331 mg/kg naproxen in diet): 569 days
- effect on survival (in words) ([4]; LS/HNPCC mice vs untreated): nearly double the life span of untreated animals
- increase in life span (FIG. 2 grouping) ([4]; representative survival data, vs untreated LS/HNPCC mice): ~100%

Compound: CC1=C(CC(=O)O)c2cc(F)ccc2/C1=C\c1ccc(S(C)(=O)=O)cc1 [Sulindac Sulfone, sulindac sulfone]
- effect on survival (in words) ([4]; LS/HNPCC mice vs untreated): No Effect

Compound: CC1=C(CC(=O)O)c2cc(F)ccc2/C1=C\c1ccc([S+](C)[O-])cc1 (centres unmarked) [Sulindac, sulindac]
- tumor induction in wild type controls (in words) (VpC^+/+ (wild type) mice; mouse, in vivo): induces tumors in the wild type controls
- survival of wild type mice (in words) (VpC^+/+ (wild type) mice; wild type controls, FIG. 2B): significant reduce the survival of the wild type mice
- MSI suppression (in words) [1]: suppressed MSI
- number of cecal cancers (in words) [3]: increases the number of cecal cancers
- effect on survival (in words) ([4]; LS/HNPCC mice vs untreated): increased survival similar to ASA

Compound: NO-sulindac sulphone
- effect on survival (in words) ([4]; LS/HNPCC mice vs untreated): No Effect

Compound: nitric oxide-donating acetylsalicylic acid [NO-ASA]
- dose suppressing MSI, fold lower than ASA ([1]; relative to ASA): 300-3000 fold
- conversion of MSI to MSS (in words) [2]: at least partially converted MSI to MSS
- comparative MSI-H proportion [2]: 20%
- numbers of tumors when sacrificed [3]: 1.78±1.25
- mean survival ([4]; 72 mg/kg NO-ASA in diet): 403 days
- effect on survival (in words) ([4]; LS/HNPCC mice vs untreated): suppressed tumorigenesis and increased survival

Compound: nitric oxide-donating sulindac [NO-Sulindac]
- effect on survival (in words) ([4]; mouse, in vivo): increased survival similar to ASA
